Source: paper PMC11224111, “Optimizing the pharmacokinetics of an ^211At-labeled RGD peptide with an albumin-binding moiety via the administration of an albumin-binding inhibitor” (European Journal of Nuclear Medicine and Molecular Imaging, 2024)
Read-outs that look alike come from different tables or passages of the source. Marks after values point to notes of the source that are not given here.

Key:
[1] = Biodistribution of [^211At]1 and [^125I]2 in normal mice with ibuprofen or IPBA as albumin-binding inhibitor; conditions: inhibitor at 1 h postinjection, 4 h postinjection of radiotracer
Procedure: To evaluate the effects of albumin-binding inhibitors in normal mice, [^211At]1 (37 kBq) and [^125I]2 (37 kBq) were intravenously coadministered. […] The total blood albumin (1.1 µmol) in normal mice was calculated from the albumin concentration (3.0 g/dL ≈ 455 µM) in blood, which was informed from Japan SLC, Inc., total blood volume (2.5 mL) as 8% of body weight, and the molecular weight of albumin as 66,000 g/mol. […]
Table S1. Biodistribution of radioactivity 4 h after administration of [^211At]1 and [^125I]2 in normal mice.

[2] = Biodistribution of [^125I]2 and [^67Ga]3 in normal mice with IPBA; assay type: in vivo; conditions: for tissue uptake at 4 h / tissue uptake dose at 4 h: male, ddY, iv, total radioactivity
Procedure: To evaluate the effects of inhibitors in normal mice, [^125I]2 (37 kBq) and [^67Ga]3 (37 kBq) were intravenously coadministered into 6 weeks male ddY mice (29-36 g, Japan SLC, Inc., Hamamatsu, Japan). At 1 h postinjection of radiotracers, sodium 4-(4-iodophenyl)butanoate (IPBA) at 2 (680 µg, 2.2 µmol) or 5 (1.7 mg, 5.5 µmol) molar equivalent of blood albumin was administered. Mice were sacrificed at 4 h post-injection of radiotracers.
Table S2. […] IPBA as an inhibitor was administered at 1 h postinjection of [^125I]2 and [^67Ga]3.

[3] = tested on: U-87 MG tumor-bearing mice; set-up: method as in PMID 37819452; conditions: 24-h postinjection, without IPBA; cited from earlier work
[4] = cited from earlier work
[5] = normal mice, 4 h after administration of [^125I]2 and [^67Ga]3, IPBA 2 eq at 1 h postinjection
[6] = normal mice, 4 h after administration of [^125I]2 and [^67Ga]3, IPBA 5 eq at 1 h postinjection
[7] = normal mice, 4 h after administration, without IPBA

## O=C([O-])CCCc1ccc(I)cc1.[Na+] [IPBA, sodium 4-(4-iodophenyl)butanoate, reference compound]
[1]
  Effect of inhibitor on blood radioactivity of [^211At]1: decreased in a dose-dependent manner

## N=C(N)NCCC[C@@H]1NC(=O)[C@H](CCCCNC(=O)[C@H](CCCCN)NC(=O)CN2CCN(CC(=O)O)CCN(CC(=O)O)CCN(CC(=O)O)CC2)NC(=O)[C@@H](Cc2ccccc2)NC(=O)[C@H](CC(=O)O)NC(=O)CNC1=O [[^67Ga]3, [^67Ga]Ga-DOTA-K-c(RGDfK), metal not drawn]
[2]; mouse, heart, normal mice, 4 h after administration of [^125I]2 and [^67Ga]3, IPBA 5 eq at 1 h postinjection, read-out: Radioactivity, Heart
  tissue uptake at 4 h: 0.29 %ID/g
[2]; mouse, in vivo, Radioactivity, L. intestine
  tissue uptake at 4 h: 3.07 %ID/g
[2]; mouse, in vivo, Radioactivity, S. intestine
  tissue uptake at 4 h: 1.05 %ID/g
[2]; mouse, kidney, normal mice, 4 h after administration of [^125I]2 and [^67Ga]3, IPBA 5 eq at 1 h postinjection, read-out: Radioactivity, Kidney
  tissue uptake at 4 h: 8.04 %ID/g
[2]; mouse, liver, normal mice, 4 h after administration of [^125I]2 and [^67Ga]3, IPBA 5 eq at 1 h postinjection, read-out: Radioactivity, Liver
  tissue uptake at 4 h: 1.54 %ID/g
[2]; mouse, neck, normal mice, 4 h after administration of [^125I]2 and [^67Ga]3, IPBA 2 eq at 1 h postinjection, read-out: Radioactivity, Neck
  tissue uptake dose at 4 h: 0.01 %ID
[2]; mouse, neck, normal mice, 4 h after administration of [^125I]2 and [^67Ga]3, IPBA 5 eq at 1 h postinjection, read-out: Radioactivity, Neck
  tissue uptake dose at 4 h: 0.01 %ID
[2]; mouse, stomach, normal mice, 4 h after administration of [^125I]2 and [^67Ga]3, IPBA 2 eq at 1 h postinjection, read-out: Radioactivity, Stomach
  tissue uptake dose at 4 h: 0.48 %ID
[2]; mouse, stomach, normal mice, 4 h after administration of [^125I]2 and [^67Ga]3, IPBA 5 eq at 1 h postinjection, read-out: Radioactivity, Stomach
  tissue uptake dose at 4 h: 0.59 %ID
[2]; mouse, in vivo
  Radioactivity, L. intestine: 4.88 (1.50) ^a % injected activity per gram
  Radioactivity, S. intestine: 1.76 (0.40) ^*,^ b % injected activity per gram
[2]; [5]
  Radioactivity, Blood: 0.03 (0.01) ^***,^ a % injected activity per gram
  Radioactivity, Bone: 0.55 (0.08) ^**,^ a % injected activity per gram
  Radioactivity, Brain: 0.04 (0.01) ^** % injected activity per gram
  Radioactivity, Heart: 0.23 (0.03) ^***,^ a % injected activity per gram
  Radioactivity, Kidney: 6.67 (1.04) ^* % injected activity per gram
  Radioactivity, Liver: 1.18 (0.14) ^*** % injected activity per gram
  Radioactivity, Lung: 0.49 (0.05) ^***,^ a % injected activity per gram
  Radioactivity, Muscle: 0.16 (0.02) ^***,^ a % injected activity per gram
  Radioactivity, Pancreas: 0.33 (0.01) ^*** % injected activity per gram
  Radioactivity, Spleen: 0.64 (0.16) ^*** % injected activity per gram
[2]; [6]
  Radioactivity, Blood: 0.03 (0.00) ^*,^ a % injected activity per gram
  Radioactivity, Bone: 0.70 (0.12) ^** % injected activity per gram
  Radioactivity, Brain: 0.05 (0.02) ^** % injected activity per gram
  Radioactivity, Lung: 0.55 (0.11) ^*,^ a % injected activity per gram
  Radioactivity, Muscle: 0.23 (0.04) ^*,^ b % injected activity per gram
  Radioactivity, Pancreas: 0.47 (0.13) ^** % injected activity per gram
  Radioactivity, Spleen: 0.90 (0.28) ^* % injected activity per gram
[2]; normal mice, IPBA 2 or 5 eq at 1 h postinjection
  Change of biodistribution by IPBA administration: did not change biodistribution
[3]
  Tumor accumulation: 1.84 ± 0.09 %IA/g
[4]; mouse, in vivo
  Radioactivity, L. intestine: 1.88 (0.65) % injected activity per gram
  Radioactivity, S. intestine: 1.16 (0.15) ^* % injected activity per gram
[4]; [7]
  Radioactivity, Blood: 0.09 (0.05) ^*** % injected activity per gram
  Radioactivity, Bone: 0.83 (0.05) ^* % injected activity per gram
  Radioactivity, Brain: 0.05 (0.00) ^*** % injected activity per gram
  Radioactivity, Heart: 0.26 (0.04) ^*** % injected activity per gram
  Radioactivity, Kidney: 6.61 (0.81) ^* % injected activity per gram
  Radioactivity, Liver: 1.15 (0.07) ^** % injected activity per gram
  Radioactivity, Lung: 0.50 (0.04) ^*** % injected activity per gram
  Radioactivity, Muscle: 0.19 (0.02)^ *** % injected activity per gram
  Radioactivity, Neck: 0.02 (0.00)^ ** % injected activity
  Radioactivity, Pancreas: 0.40 (0.03)^ *** % injected activity per gram
  Radioactivity, Spleen: 0.64 (0.12) ^*** % injected activity per gram
  Radioactivity, Stomach: 0.44 (0.04)^ * % injected activity
